Experiments:
galium (GALAP) = assay: Test 22 growth chamber, postemergence; assay type: in vivo, Galium aparine; conditions: 25 DAA
Description: (§1) A test was conducted to evaluate the effects on winter barley (HORVW, Hordeum vulgare L.), winter wheat (TRZAW, Triticum aestivum L.), and several weed species of mixtures of Compound 2 with the commercial herbicides (2,4-dichlorophenoxy)acetic acid (2,4-D) and (4-chloro-2-methylphenoxy)acetic acid (MCPA), auxin mimics. […] Plants were treated postemergence at the 2-4 leaf growth stage, except KCHSC, SASKR and STEME which were in the 4-8 leaf growth stage. Each treatment was replicated one time. […] Plants were watered as needed. […] Results are from single replicates.

wild buckwheat (POLCO) = assay: Test 22 growth chamber, postemergence; assay type: in vivo, Polygonum convolvulus; conditions: 25 DAA
Description: as §1

field violet (VIOAR) = assay: Test 21 growth chamber, postemergence; assay type: in vivo, Viola arvensis; conditions: 19 DAA
Description: A test was conducted to evaluate the effects on winter barley (HORVW, Hordeum vulgare L.), winter wheat (TRZAW, Triticum aestivum L.), and several weed species, of mixtures of Compound 2 with the commercial herbicide (2,4-dichlorophenoxy)acetic acid (2,4-D), an auxin mimic. […] Plants were treated postemergence at the 2-4 leaf growth stage, and each treatment was replicated one time. […] Plants were watered as needed. […] Results are from single replicates.

common chickweed (STEME) = assay: Test 23 growth chamber, postemergence; assay type: in vivo, Stellaria media; conditions: 21 DAA
Description: as §1, with “stage,” for “stage, except KCHSC, SASKR”, “each” for “STEME which were in the 4-8 leaf growth stage. Each”, “three times.” for “one time.”, “means of the three” for “from single”

bushy wallflower (ERYRE) = assay: Test 9 field trial, emerged weeds before corn planting; assay type: in vivo, Erysimum repandum; conditions: g a.i./ha: Cpd 2 100, Glyphosate 1540, Paraquat 1150
Description: Corn seeds (hybrid ‘Pioneer 34M91 RR’) were planted in mid spring season, about 3.8 cm deep in a silty clay loam soil having a pH of 6.7. Plots were 9.1 m long by 3.0 m. The field was managed using no-till practices. […] Compound 2 and paraquat treatments, alone and in combination, also included a surfactant. Glyphosate, alone and with Compound 2, included ammonium sulfate in the treatment mixture. […] The effects on the weeds in the treated plots and untreated control plots were recorded 7, 14, 23, 30 and 57 days after application. Most of the weed species could not be evaluated at every timing. Corn response was only evaluated 57 days after application. […] Results are the means of the three replicates.

curly dock (RUMCR) = assay: Test 3 field trial, emerged weeds before corn planting; assay type: in vivo, Rumex crispus; conditions: Cpd 2 100, glyphosate 1540, paraquat 1150 g a.i./ha, alone or combined
Source text: Corn seeds (hybrid ‘Pioneer 33J56’) were planted in early spring season, 3.8 cm deep in a silt loam soil having 2.4% organic matter and a pH of 6. Plots were 6.1 m long by 2.7 m wide with rows spaced 91.4 cm apart. The field was managed using no-till practices. […] Compound 2 and paraquat treatments, alone and in combination, also included a surfactant. Glyphosate, alone and with Compound 2, included ammonium sulfate in the treatment mixture. […] The effects on the weeds in the treated plots and untreated control plots were recorded 30, 42, 46 and 68 days after application. Most of the weed species could not be evaluated at every timing. Corn response was not evaluated because the growth was highly variable depending on the efficacy of the weed control treatments. […] Results are the means of the three replicates.

common blackjack (BIDPI) = assay: Test 12 field trial, preemergence; assay type: in vivo, Bidens pilosa; parameters: scale not given here; conditions: Cpd 2 or Cpd 1 62 g a.i./ha, Diuron 2000 g a.i./ha
Source text: (§2) In early-mid spring season, corn seeds (hybrid ‘Pioneer 3041’) were planted 5 cm deep and sugarcane nodes (variety RB-72.454) were planted 10 cm deep in separate plots in a clay soil having 2.6% organic matter and a pH of 5.6. Plots were 24 m long by 1.5 m wide with rows spaced 80 cm (corn) or 140 cm (sugarcane) apart. Corn seeds were spaced 15 cm apart and sugarcane nodes were spaced 10 cm apart within the rows. At the same time, weed seeds were broadcast over the surface of separate plots without a crop, one weed species per plot. The weed plots were rotary tilled to incorporate the weed seeds to a variety of depths. The field was managed using conventional tillage practices.

[1] = test system: Italian cocklebur (XANSI); assay: Test 12 field trial, preemergence; assay type: in vivo, Xanthium strumarium ssp. italicum; parameters: scale not given here; conditions: Cpd 2 or Cpd 1 62 g a.i./ha, Diuron 2000 g a.i./ha
Source text: as §2

wild poinsettia (EPHHL) = assay: Test 12 field trial, preemergence; assay type: in vivo, Euphorbia heterophylla; parameters: scale not given here; conditions: Cpd 2 or Cpd 1 62 g a.i./ha, Diuron 2000 g a.i./ha
Source text: as §2

[2] = 2,4-D or MCPA alone 250 g a.i./ha

Structure (SMILES) | ERYRE Obs (bushy wallflower (ERYRE); 7 DAA) | ERYRE Obs (bushy wallflower (ERYRE); 14 DAA) | ERYRE Obs (bushy wallflower (ERYRE); 23 DAA) | ERYRE Obs (bushy wallflower (ERYRE); 30 DAA) | ERYRE Obs (bushy wallflower (ERYRE); 57 DAA) | RUMCR Obs (curly dock (RUMCR); 30 DAA) | RUMCR Obs (curly dock (RUMCR); 42 DAA) | RUMCR Obs (curly dock (RUMCR); 46 DAA) | RUMCR Obs (curly dock (RUMCR); 68 DAA) | BIDPI Obs (common blackjack (BIDPI); 15 DAA) | BIDPI Obs (common blackjack (BIDPI); 29 DAA) | BIDPI Obs (common blackjack (BIDPI); 48 DAA) | BIDPI Obs (common blackjack (BIDPI); 61 DAA) | XANSI Obs ([1]; 15 DAA) | XANSI Obs ([1]; 29 DAA) | XANSI Obs ([1]; 48 DAA) | XANSI Obs ([1]; 61 DAA) | EPHHL Obs (wild poinsettia (EPHHL); 15 DAA) | EPHHL Obs (wild poinsettia (EPHHL); 29 DAA) | EPHHL Obs (wild poinsettia (EPHHL); 48 DAA) | other results
O=C(O)COc1ccc(Cl)cc1Cl [2,4-D, (2,4-dichlorophenoxy)acetic acid] |  |  |  |  |  |  |  |  |  |  |  |  |  |  |  |  |  |  |  |  | Postemergence GALAP Obs (galium (GALAP); [2]): 30; Postemergence POLCO Obs (wild buckwheat (POLCO); [2]): 45; Postemergence VIOAR Obs (field violet (VIOAR); 2,4-D alone 125 g a.i./ha): 0; Postemergence VIOAR Obs (field violet (VIOAR); 2,4-D alone 250 g a.i./ha): 20; Postemergence STEME Obs (common chickweed (STEME); [2]): 65
O=C(O)CNCP(=O)(O)O [Glyphosate] | 63% | 74% | 89% | 100% | 100% | 75% | 61% | 82% | 93% |  |  |  |  |  |  |  |  |  |  |  | 
Nc1nc(C2CC2)nc(C(=O)O)c1Cl [Compound 1, 6-amino-5-chloro-2-cyclopropyl-4-pyrimidinecarboxylic acid] |  |  |  |  |  |  |  |  |  | 70 | 80 | 80 | 60 | 40 | 90 | 90 | 60 | 40 | 70 | 50 | EPHHL Obs (wild poinsettia (EPHHL); 61 DAA): 40
COC(=O)c1nc(C2CC2)nc(N)c1Cl [Compound 2, methyl 6-amino-5-chloro-2-cyclopropyl-4-pyrimidinecarboxylate] | 20% | 3% | 3% | 0% | 0% | 62% | 37% | 54% | 67% | 60 | 80 | 80 | 70 | 0 | 70 | 60 | 40 | 40 | 60 | 40 | Postemergence GALAP Obs (galium (GALAP); Cpd 2 alone 4 g a.i./ha): 65; Postemergence GALAP Obs (galium (GALAP); Cpd 2 alone 8 g a.i./ha): 90; Postemergence GALAP Obs (galium (GALAP); Cpd 2 alone 16 g a.i./ha): 100; Postemergence POLCO Obs (wild buckwheat (POLCO); Cpd 2 alone 4 g a.i./ha): 55; Postemergence POLCO Obs (wild buckwheat (POLCO); Cpd 2 alone 8 g a.i./ha): 60; Postemergence POLCO Obs (wild buckwheat (POLCO); Cpd 2 alone 16 g a.i./ha): 60; EPHHL Obs (wild poinsettia (EPHHL); 61 DAA): 40; Postemergence VIOAR Obs (field violet (VIOAR); Cpd 2 alone 16 g a.i./ha): 60; Postemergence STEME Obs (common chickweed (STEME); Cpd 2 alone 4 g a.i./ha): 55; Postemergence STEME Obs (common chickweed (STEME); Cpd 2 alone 8 g a.i./ha): 58; Postemergence STEME Obs (common chickweed (STEME); Cpd 2 alone 16 g a.i./ha): 67

From patent US20100285959A1, “HERBICIDAL MIXTURES” (priority 2006, published 2010)
